Active and inactive are the calls of the source. The rule behind the calls is not given here.
Assays:
[1] = test system: HeLa; assay: Cytotoxicity against human HeLa cells assessed as reduction in cell viability incubated for 48 hrs by MTT assay; format: functional, cell-based
[2] = test system: MCF7; assay: Cytotoxicity against human MCF7 cells assessed as reduction in cell viability incubated for 48 hrs by MTT assay; format: functional, cell-based; conditions: MCF7, 48 h
[3] = test system: A549; assay: Cytotoxicity against human A549 cells assessed as reduction in cell viability incubated for 48 hrs by MTT assay; format: functional, cell-based; conditions: A549, 48 h
[4] = test system: MGC-803; assay: Cytotoxicity against human MGC803 cells assessed as reduction in cell viability incubated for 48 hrs by MTT assay; format: functional, cell-based; conditions: MGC-803, 48 h
[5] = test system: Calf thymus DNA; assay: Binding affinity to calf thymus DNA assessed as reduction in compound self absorption intensity at 1 x 10^-5 M by UV-Visible spectroscopy; format: nucleic-acid assay; conditions: Bos taurus
[6] = test system: Calf thymus DNA; assay: Binding affinity to calf thymus DNA assessed as induction of bathochromic shift of maximum absorption peaks at 1 x 10^-5 M by UV-Visible spectroscopy (reference value: 426 nanometer); format: nucleic-acid assay; conditions: Bos taurus
[7] = test system: Calf thymus DNA; assay: Binding affinity to calf thymus DNA at 1 x 10^-5 M by UV-Visible spectroscopy; format: nucleic-acid assay; conditions: Bos taurus
[8] = test system: Calf thymus DNA; assay: Binding affinity to calf thymus DNA assessed as increase in compound fluorescence intensity at 1 x 10^-5 M by fluorescence spectroscopy; format: nucleic-acid assay; conditions: Bos taurus
[9] = test system: Calf thymus DNA; assay: Binding affinity to calf thymus DNA assessed as induction of maximum emission band shift at 1 x 10^-5 M by fluorescence spectroscopy; format: nucleic-acid assay; conditions: Bos taurus
[10] = test system: Calf thymus DNA; assay: Binding affinity to calf thymus DNA assessed as increase in intensity of positive band at 275 nm at 8 uM to 40 uM by CD spectroscopy; format: nucleic-acid assay; conditions: Bos taurus
[11] = test system: Calf thymus DNA; assay: Binding affinity to calf thymus DNA assessed as induction of ICD signal changes at 8 uM to 40 uM by CD spectroscopy; format: nucleic-acid assay; conditions: Bos taurus
[12] = test system: Calf thymus DNA; assay: Binding affinity to calf thymus DNA assessed as change in melting temperature at 5 uM; format: nucleic-acid assay; conditions: Bos taurus
[13] = Drug accumulation in lysosome of human HeLa cells at 5 uM incubated for 1 hr by lysososmal tracker DND-99 based confocal microscopy; format: ADME, subcellular
[14] = test system: HeLa; assay: Cell cycle arrest in human HeLa cells assessed as accumulation at G1 phase at 2.5 uM incubated for 12 hrs by propidium iodide staining based flow cytometry (reference value: 65.2%); format: functional
[15] = test system: HeLa; assay: Cell cycle arrest in human HeLa cells assessed as accumulation at G2 phase at 2.5 uM incubated for 12 hrs by propidium iodide staining based flow cytometry (reference value: 7%); format: functional
[16] = test system: HeLa; assay: Cell cycle arrest in human HeLa cells assessed as accumulation at S phase at 2.5 uM incubated for 12 hrs by propidium iodide staining based flow cytometry (reference value: 27.8%); format: functional
[17] = test system: HeLa; assay: Cell cycle arrest in human HeLa cells assessed as accumulation at G1 phase at 5 uM incubated for 12 hrs by propidium iodide staining based flow cytometry (reference value: 65.2%); format: functional
[18] = test system: HeLa; assay: Cell cycle arrest in human HeLa cells assessed as accumulation at G2 phase at 5 uM incubated for 12 hrs by propidium iodide staining based flow cytometry (reference value: 7%); format: functional
[19] = test system: HeLa; assay: Cell cycle arrest in human HeLa cells assessed as accumulation at S phase at 5 uM incubated for 12 hrs by propidium iodide staining based flow cytometry (reference value: 27.8%); format: functional
[20] = test system: HeLa; assay: Cell cycle arrest in human HeLa cells assessed as accumulation at G1 phase at 7.5 uM incubated for 12 hrs by propidium iodide staining based flow cytometry (reference value: 65.2%); format: functional
[21] = test system: HeLa; assay: Cell cycle arrest in human HeLa cells assessed as accumulation at G2 phase at 7.5 uM incubated for 12 hrs by propidium iodide staining based flow cytometry (reference value: 7%); format: functional
[22] = test system: HeLa; assay: Cell cycle arrest in human HeLa cells assessed as accumulation at S phase at 7.5 uM incubated for 12 hrs by propidium iodide staining based flow cytometry (reference value: 27.8%); format: functional
[23] = test system: Calf thymus DNA; assay: Binding affinity to calf thymus DNA assessed as increase in compound fluorescence intensity at 1 x 10^-5 M up to 1.4 x 10^-4M DNA by fluorescence spectroscopy; format: nucleic-acid assay; conditions: Bos taurus
[24] = test system: Calf thymus DNA; assay: Binding affinity to calf thymus DNA assessed as increase in […] shift at 1 x 10^-5 M by fluorescence spectroscopy (reference value: 542 nanometer); format: nucleic-acid assay; conditions: Bos taurus

Structure (SMILES)	IC50 [1] [µM]	IC50 [2] [µM]	IC50 [3] [µM]	IC50 [4] [µM]	other results
Cl.Cl.Cl.Cl.O=C1c2cccc3c(N4CCC(O)CC4)ccc(c23)C(=O)N1CCCNCCNCCCN1C(=O)c2cccc3c(N4CCC(O)CC4)ccc(c23)C1=O	2.89	37.1	46.2	0.6	Activity [5]: Active; Activity [6]: 445 nm; K [7]: 1.8 ×10⁵ /M; Activity [8]: Active; Activity [9]: inactive; Activity [10]: Active; Activity [11]: Active; ΔTm [12]: 8.2 °C; Drug uptake [13]: Active; Activity [14]: 47.5%; Activity [15]: 11.7%; Activity [16]: 40.8%; Activity [17]: 44.9%; Activity [18]: 9.9%; Activity [19]: 45.2%; Activity [20]: 44.3%; Activity [21]: 5.3%; Activity [22]: 50.4%
CN(C)CCN1C(=O)c2cccc3cc(N)cc(c23)C1=O [AMONAFIDE]	3.41	6.79	2	3.23	
O=C1c2cccc3c(N4CCC[C@@H]4CO)ccc(c23)C(=O)N1CCCNCCNCCCN1C(=O)c2cccc3c(N4CCC[C@@H]4CO)ccc(c23)C1=O	89.2	93.5	72.6	6.41	
O=C1c2cccc3c(N4CC[C@H](O)C4)ccc(c23)C(=O)N1CCCNCCNCCCN1C(=O)c2cccc3c(N4CC[C@H](O)C4)ccc(c23)C1=O	35.4	142	83.6	5.96	
O=C1c2cccc3c(N4CCC[C@H]4CO)ccc(c23)C(=O)N1CCCNCCNCCCN1C(=O)c2cccc3c(N4CCC[C@H]4CO)ccc(c23)C1=O	85.2	147	472	35.1	
O=C1c2cccc3c(N4CCC(CCO)CC4)ccc(c23)C(=O)N1CCCNCCNCCCN1C(=O)c2cccc3c(N4CCC(CCO)CC4)ccc(c23)C1=O	6.88	11.1	43.5	90.4	
O=C1c2cccc3c(N4CCC(CO)CC4)ccc(c23)C(=O)N1CCCNCCNCCCN1C(=O)c2cccc3c(N4CCC(CO)CC4)ccc(c23)C1=O	4.03	22.7	14	2.03	
Cl.Cl.Cl.Cl.O=C1c2cccc3c(N4CCN(CCO)CC4)ccc(c23)C(=O)N1CCCNCCNCCCN1C(=O)c2cccc3c(N4CCN(CCO)CC4)ccc(c23)C1=O	2.73	20	2.59	1.6	Activity [5]: Active; Activity [6]: inactive; K [7]: 2.6 ×10⁵ /M; Activity [23]: Active; Activity [24]: 528 nm; Activity [10]: Active; Activity [11]: Active; ΔTm [12]: 14.3 °C; Drug uptake [13]: Active; Activity [14]: 48.9%; Activity [15]: 10.9%; Activity [16]: 40.2%; Activity [17]: 46%; Activity [18]: 4.3%; Activity [19]: 49.7%; Activity [20]: 42.6%; Activity [21]: 3.7%; Activity [22]: 53.87%
O=C1c2cccc3c(N4CC[C@@H](O)C4)ccc(c23)C(=O)N1CCCNCCNCCCN1C(=O)c2cccc3c(N4CC[C@@H](O)C4)ccc(c23)C1=O	45.4	74.6	23	9.41	

From ChEMBL document CHEMBL4184215, “Lysosomes-targeting imaging and anticancer properties of novel bis-naphthalimide derivatives” (Bioorg Med Chem Lett, 2018)
